# Measured values published in patent publication US10792289B2 (Horizon Orphan LLC, priority 2009, dated 2020).
# Test system: stable CF patients
# Assay: Phase 2 study: CFQ-R questionnaire
# Assay type: in vivo, human
# Procedure: The following dosage regimens (as nebulizer loaded doses) were evaluated: 120 mg QD (daily); 240 mg QD (daily); and 240 mg BID (twice daily).
# Patients were assessed on Day 1, 7, 14, and 28, and then up to 28 days after completion of study drug, namely, Days 42 and 56. The end of the study was defined as the last visit of the last patient.
# Efficacy was evaluated by microbiologic assessment of sputum samples, time to need for anti-pseudomonal antimicrobials, the Cystic Fibrosis Questionaire-Revised (CFQ-R), and pulmonary function tests. […] Pair-wise comparisons between all the treatment arms were conducted as secondary analyses.
# Patients completed the CFQ-R questionnaire with domains that included: respiratory, body image, digestion, eating, emotion, health perception, physical, role/school, social, treatment burden, vitality, and weight.
# [1] = EE population, Combined 240 mg QD and BID
# [2] = MITT population, 240 mg BID vs Placebo, baseline to visit 4
structure (smiles),measurement,setting,value
"C[C@H]1COc2c(N3CCN(C)CC3)c(F)cc3c(=O)c(C(=O)O)cn1c23 [Levofloxacin, levofloxacin]","Respiratory domain of CFQ-R, Change from Baseline to Day 14, Mean","EE population, 120 mg QD",4.3
same,"Respiratory domain of CFQ-R, Change from Baseline to Day 14, Median","EE population, 120 mg QD",5.5
same,"Respiratory domain of CFQ-R, Change from Baseline to Day 28, Mean","EE population, 120 mg QD",1.6
same,"Respiratory domain of CFQ-R, Change from Baseline to Day 28, Median","EE population, 120 mg QD",0.0
same,"Respiratory domain of CFQ-R, Day 1, Mean","EE population, 120 mg QD",63.5
same,"Respiratory domain of CFQ-R, Day 1, Median","EE population, 120 mg QD",66.7
same,"Respiratory domain of CFQ-R, Day 14, Mean","EE population, 120 mg QD",67.8
same,"Respiratory domain of CFQ-R, Day 14, Median","EE population, 120 mg QD",66.7
same,"Respiratory domain of CFQ-R, Day 28, Mean","EE population, 120 mg QD",65.1
same,"Respiratory domain of CFQ-R, Day 28, Median","EE population, 120 mg QD",66.7
same,"Respiratory domain of CFQ-R, Change from Baseline to Day 14, Mean","EE population, 240 mg BID",8.5
same,"Respiratory domain of CFQ-R, Change from Baseline to Day 14, Median","EE population, 240 mg BID",5.6
same,"Respiratory domain of CFQ-R, Change from Baseline to Day 28, Mean","EE population, 240 mg BID",5.2
same,"Respiratory domain of CFQ-R, Change from Baseline to Day 28, Median","EE population, 240 mg BID",5.5
same,"Respiratory domain of CFQ-R, Day 1, Mean","EE population, 240 mg BID",60.3
same,"Respiratory domain of CFQ-R, Day 1, Median","EE population, 240 mg BID",61.1
same,"Respiratory domain of CFQ-R, Day 14, Mean","EE population, 240 mg BID",68.8
same,"Respiratory domain of CFQ-R, Day 14, Median","EE population, 240 mg BID",72.2
same,"Respiratory domain of CFQ-R, Day 28, Mean","EE population, 240 mg BID",66.0
same,"Respiratory domain of CFQ-R, Day 28, Median","EE population, 240 mg BID",72.2
same,"Respiratory domain of CFQ-R, Change from Baseline to Day 14, Mean","EE population, 240 mg QD",2.1
same,"Respiratory domain of CFQ-R, Change from Baseline to Day 14, Median","EE population, 240 mg QD",0.0
same,"Respiratory domain of CFQ-R, Change from Baseline to Day 28, Mean","EE population, 240 mg QD",1.0
same,"Respiratory domain of CFQ-R, Change from Baseline to Day 28, Median","EE population, 240 mg QD",0.0
same,"Respiratory domain of CFQ-R, Day 1, Mean","EE population, 240 mg QD",60.8
same,"Respiratory domain of CFQ-R, Day 1, Median","EE population, 240 mg QD",61.1
same,"Respiratory domain of CFQ-R, Day 14, Mean","EE population, 240 mg QD",63.2
same,"Respiratory domain of CFQ-R, Day 14, Median","EE population, 240 mg QD",66.7
same,"Respiratory domain of CFQ-R, Day 28, Mean","EE population, 240 mg QD",61.7
same,"Respiratory domain of CFQ-R, Day 28, Median","EE population, 240 mg QD",66.7
same,"Respiratory domain of CFQ-R, Change from Baseline to Day 14, Mean",[1],5.3
same,"Respiratory domain of CFQ-R, Change from Baseline to Day 14, Median",[1],5.6
same,"Respiratory domain of CFQ-R, Change from Baseline to Day 28, Mean",[1],3.0
same,"Respiratory domain of CFQ-R, Change from Baseline to Day 28, Median",[1],0.0
same,"Respiratory domain of CFQ-R, Day 1, Mean",[1],60.5
same,"Respiratory domain of CFQ-R, Day 1, Median",[1],61.1
same,"Respiratory domain of CFQ-R, Day 14, Mean",[1],66.0
same,"Respiratory domain of CFQ-R, Day 14, Median",[1],66.7
same,"Respiratory domain of CFQ-R, Day 28, Mean",[1],63.8
same,"Respiratory domain of CFQ-R, Day 28, Median",[1],66.7
same,"CFQ-R respiratory, mean change from baseline","EE, 120 mg QD, Baseline to Day 28",1.0 units
same,"Respiratory domain of CFQ-R, Change from Baseline to Day 14, Mean","MITT population, 120 mg QD",4.5
same,"Respiratory domain of CFQ-R, Change from Baseline to Day 14, Median","MITT population, 120 mg QD",5.5
same,"Respiratory domain of CFQ-R, Change from Baseline to Day 28, Mean","MITT population, 120 mg QD",2.0
same,"Respiratory domain of CFQ-R, Change from Baseline to Day 28, Median","MITT population, 120 mg QD",0.0
same,"Respiratory domain of CFQ-R, Day 1, Mean","MITT population, 120 mg QD",62.3
same,"Respiratory domain of CFQ-R, Day 1, Median","MITT population, 120 mg QD",61.1
same,"Respiratory domain of CFQ-R, Day 14, Mean","MITT population, 120 mg QD",67.1
same,"Respiratory domain of CFQ-R, Day 14, Median","MITT population, 120 mg QD",66.7
same,"Respiratory domain of CFQ-R, Day 28, Mean","MITT population, 120 mg QD",64.6
same,"Respiratory domain of CFQ-R, Day 28, Median","MITT population, 120 mg QD",66.7
same,"Respiratory domain of CFQ-R, Change from Baseline to Day 14, Mean","MITT population, 240 mg BID",7.5
same,"Respiratory domain of CFQ-R, Change from Baseline to Day 14, Median","MITT population, 240 mg BID",5.6
same,"Respiratory domain of CFQ-R, Change from Baseline to Day 28, Mean","MITT population, 240 mg BID",3.0
same,"Respiratory domain of CFQ-R, Change from Baseline to Day 28, Median","MITT population, 240 mg BID",0.0
same,"Respiratory domain of CFQ-R, Day 1, Mean","MITT population, 240 mg BID",60.5
same,"Respiratory domain of CFQ-R, Day 1, Median","MITT population, 240 mg BID",61.1
same,"Respiratory domain of CFQ-R, Day 14, Mean","MITT population, 240 mg BID",68.4
same,"Respiratory domain of CFQ-R, Day 14, Median","MITT population, 240 mg BID",72.2
same,"Respiratory domain of CFQ-R, Day 28, Mean","MITT population, 240 mg BID",64.4
same,"Respiratory domain of CFQ-R, Day 28, Median","MITT population, 240 mg BID",72.2
same,"CFQ-R Body Image, LS Mean Difference",[2],−0.25
same,"CFQ-R Digestion, LS Mean Difference",[2],2.46
same,"CFQ-R Eating, LS Mean Difference",[2],5.70
same,"CFQ-R Emotion, LS Mean Difference",[2],−0.09
same,"CFQ-R Health Perception, LS Mean Difference",[2],2.58
